Test results published in US6369109B1, “Betulinic acid and derivatives thereof useful for the treatment of neuroectodermal tumor” (Deutsches Krebsforschungszentrum Stiftung des Offentlichen …, priority 1998, dated 2002).
Entries after “also recorded” stand apart in the source; their conditions may differ.

Assays:
Kelly cells = assay: Specific apoptosis induction by betulinic acid derivatives; type: cell-based; details: FIG. 17C
Protocol: (§1) Quantification of DNA fragmentation was performed by FACS analysis of propidium iodide stained nuclei as described in Nicoletti et al, 1991, J. Immunol. Methods. 139: 271-279. Cells were analyzed for DNA content by flow. cytometry (FACScan, Becton Dickinson, Heidelberg, Germany) using CELLQuest software. Early apoptotic changes were identified by staining with biotinylated annexin V (Bender Med Systems, Vienna, Austria) following the manufacturer's instructions. Annexin V binds to exposed phosphatidylserine on the surface of apoptotic cells. Koopman et al, 1994, Blood. 84:1415-1420. Cells were analyzed by flow cytometry (FAC-Scan. Becton Dickinson) using CELLQuest software.
(§2) More specifically, betulinic acid, 28-acetyl-3-β-D-glucosyl betulin (“B10”), 3-β-28-hydroxylup-20(29)-en-3-yl-β-D-glucopyranoside (“B11”), 3-β-3-hydroxylup-20(29)-en-28-yl-β-D-glucopyranoside (“B12”), and 3-(β-D-glucopyranosyloxy)lup-20(29)-en-28-oic acid (“B13”) have been tested for specific apoptosis induction using the assays shown in Example 2. See, supra. […] (FIG. 17B).

IMR-5 cells = assay: as above; type: cell-based; details: FIG. 17B
Protocol: as §1, §2

[1] = test system: melanoma cell line (MEL-2); details: previously reported; cited from earlier work
[2] = test system: caspase-3, caspase-8 and PARP in cytosolic extracts from SHEP cells; assay: Cleavage of caspases in cytosolic extracts by cytochrome c or AIF; type: biochemical, human; details: FIG. 11A
Protocol: For determination of nuclear fragmentation, nuclei (10^3/μl) were incubated with mitochondria (1 μg/μl) in buffer D (10 mM HEPES, pH 7.4, 50 mM NaCl, 2 mM MgCl2, 5 mM EGTA, 1 mM DDT, 2 mM ATP, 10 mM phosphocreatine, 50 μg/ml creatine kinase, 10 μM cytochalasin B) for 2 h at 37° C. Nuclei were stained with propidium iodide ([…]) and analyzed by flow cytometry. For determination of caspase activation, cytosolic extracts (2 μg/μl) were incubated with mitochondria (1 μg/μl), cytochrome c (0.1-100 μM) or AIF-containing mitochondrial supernatant (0.5 μg/μl) in buffer D for 2 h at 37° C. Partially purified AIF (cytochrome c-free) was prepared as previously described (0.5 mg/ml, Susin et al., 1997, J. Exp. Med. 186, 5-37; Susin et al., 1996, J. Exp. Med. 184, 1331-41). Proteins were separated by 15% SDS-PAGE and Western blot analysis was performed as described above. To confirm equal loading of mitochondrial protein, all Western blots were also developed with an antibody directed against a 60 kDa mitochondrial antigen (data not shown).
Cytosolic extracts from SHEP cells were incubated with 0.1-100 μM cytochrome c. Immunodetection of caspases-3, -8 and PARP was performed as described in FIG. 9A.
Cytosolic extracts from SHEP cells transfected with a neomycin resistance vector only (Nec) or bcl-2 were incubated with partially purified AIF. Immunodetection of caspases-3, -8 and PARP was performed as described for FIG. 9A.
For determination of nuclear fragmentation, nuclei (10^3/μl) were incubated with mitochondria (1 μg/μl) in buffer D (10 mM HEPES, pH 7.4, 50 mM NaCl, 2 mM MgCl2, 5 mM EGTA, 1 mM DDT, 2 mM ATP, 10 mM phosphocreatine, 50 μg/ml creatine kinase, 10 μM cytochalasin B) for 2 h at 37° C. Nuclei were stained with propidium iodide ([…]) and analyzed by flow cytometry (Susin et al., 1997 Exp. Cell Res. 236:397-403). For determination of caspase activation, cytosolic extracts (2 μg/μl) were incubated with mitochondria (1 μg/μl), cytochrome c (10 μM) or AIF-containing mitochondrial supernatant (0.5 μg/μl) in buffer D for 2 h at 37° C. […]

[3] = 0.1-100 μM (Ex. 3) or 10 μM (Ex. 4) cytochrome c, partially purified AIF or AIF-containing supernatant, 11B, 16B

With `C=C(C)C1CCC2(COC(C)=O)CCC3(C)C(CCC4C5(C)CCC(OC6OC(CO)C(O)C(O)C6O)C(C)(C)C5CCC43C)C12` [B10, 3β-28-(acetyloxy)lup-20(29)-en-3-yl-β-D-glucopyranoside] the “apoptotic activity compared to betulinic acid” value (Kelly cells) was “at least as high as betulinic acid” and the “apoptotic activity compared to betulinic acid” value (IMR-5 cells) was “enhanced apoptotic activity”.

For `C=C(C)[C@@H]1CC[C@]2(CO)CC[C@]3(C)[C@H](CC[C@@H]4[C@@]5(C)CC[C@H](O[C@@H]6O[C@H](CO)[C@@H](O)[C@H](O)[C@H]6O)C(C)(C)[C@@H]5CC[C@]43C)[C@@H]12` [B11, 3-β-28-hydroxylup-20(29)-en-3-yl-β-D-glucopyranoside], the “apoptotic activity compared to betulinic acid” value (Kelly cells) was “at least as high as betulinic acid” and the “apoptotic activity compared to betulinic acid” value (IMR-5 cells) was “about the same activity as betulinic acid”.

In the case of `C=C(C)C1CCC2(COC3OC(CO)C(O)C(O)C3O)CCC3(C)C(CCC4C5(C)CCC(O)C(C)(C)C5CCC43C)C12` [B12, 3-β-3-hydroxylup-20(29)-en-28-yl-β-D-glucopyranoside], the “apoptotic activity compared to betulinic acid” value (Kelly cells) was “at least as high as betulinic acid” and the “apoptotic activity compared to betulinic acid” value (IMR-5 cells) was “enhanced apoptotic activity”.

For `C=C(C)C1CCC2(C(=O)O)CCC3(C)C(CCC4C5(C)CCC(OC6OC(CO)C(O)C(O)C6O)C(C)(C)C5CCC43C)C12` [B13, 3-(β-D-glucopyranosyloxy)lup-20(29)-en-28-oic acid], the “apoptotic activity compared to betulinic acid” value (Kelly cells) was “at least as high as betulinic acid” and the “apoptotic activity compared to betulinic acid” value (IMR-5 cells) was “enhanced apoptotic activity”.

For `C=C(C)[C@@H]1CC[C@]2(C(=O)O)CC[C@]3(C)[C@H](CC[C@@H]4[C@@]5(C)CC[C@H](O)C(C)(C)[C@@H]5CC[C@]43C)[C@@H]12` [betulinic acid, 3β-3-hydroxylup-20(29)-en-28-oic acid], the cytotoxicity [1] is listed as “exert cytotoxicity”.

With cytochrome c the “cleavage of caspase-3 in cytosolic extracts” value [2, 3] was “triggered the proteolytic processing of caspase-3 to its active subunits; also recorded: resulted in the processing of caspase-3 and PARP”, the “cleavage of caspase-8 in cytosolic extracts” value [2, 3] was “did not induce caspase-8 cleavage; also recorded: did not induce caspase-8 activation” and the “cleavage of PARP in cytosolic extracts” value ([2]; 0.1-100 μM cytochrome c) was “caused caspase-mediated cleavage of PARP”.
